The source of these data is US10202349B2, “Asymmetric bis-acridines with antitumour activity and their uses” (POLITECHNIKA GDAŃSKA, priority 2015, dated 2019).

One test has as its system DU-145. The test is described as follows: Cytotoxic activity in vitro, SRB. It is filed as cell-based, human. Here is the method: (§1) Cytotoxic activity tests in-vitro. A measure of the cytotoxic activity of bis-acridines are the EC50 (concentration of studied compounds at which 50% inhibition of proliferation of tumorous is observed) of the evaluated compounds that inhibit the growth of 50% of cells in relation to a control. The cytotoxic activity of the compounds was determined using SRB, recommended by the US National Cancer Institute (USA). As the spectrum of 13 human origin neoplasms in bis-acridine screening studies, we used the following: HT 29 [CRC], HCT 116 [CRC], H 460 [lung cancer], MDA MB 231 [breast cancer], MCF-7 [breast cancer], UM UC3 [bladder cancer], PC 3 [prostate cancer], DU 145 [ prostate cancer], Panc-1 [pancreatic cancer], Mia Pa Ca 2 [pancreatic cancer], BXPC 3 [pancreatic cancer], AsPC1 [pancreatic cancer], Capan-2 [pancreatic cancer]. […] The DU-145 results were substantially a basis for selecting compounds and neoplasms for screening. The next neoplasms most sensitive to the cytotoxic activity of bis-acridines was the CRC HCT-116, as well as breast cancer MBA-MB-231. […] The cytotoxic activity of the remaining bis-acridines is significant or high (EC50 in the range from 1 to 0.04 μM). […] Panc-1, MiaPaCa-2 and Capan-2 are more sensitive, whereas for AsPC-1 and BxPC-3 this activity is at least an order of magnitude smaller.

The test system of a further test is MiaPaCa-2. The test is described as follows: Cytotoxic activity in vitro, SRB. It is filed as cell-based, human. Here is the method:
as §1

Another test has as its system PANC-1. Briefly: Cytotoxic activity in vitro, SRB. It is filed as cell-based, human. As to the method:
as §1

A further test deals with H-460. Briefly: Cytotoxic activity in vitro, SRB. It is filed as cell-based, human. Here is the method: as §1
A further test relates to HCT-116. The test is described as follows: Cytotoxic activity in vitro, SRB. It is filed as cell-based, human. As to the method: as §1
Another test concerns HT-29. The test is described as follows: Cytotoxic activity in vitro, SRB. It counts as cell-based, human. Here is the method:
as §1

For another test, the system named is MCF-7. The test is described as follows: Cytotoxic activity in vitro, SRB. It counts as cell-based, human. As to the method:
as §1

For another test, the system named is UM-UC-3. Briefly: Cytotoxic activity in vitro, SRB. It is filed as cell-based, human. Here is the method: as §1
A further test concerns PANC 1. Briefly: Anti-neoplasmic activity against xenograft in hairless mice. It is filed as in vivo. As to the method:
For this, we selected 26 bis-acridines, mainly on the basis of the cytotoxic activity. We performed 34 series of experiments evaluating the anti-neoplasmic activity on xenografts in hairless mice against eleven neoplasms of human origin from the determination of the cytotoxic activity of bis-acridines (table 4). The tumours were injected subcutaneously to hairless mice of 5-weeks, female Crl:Nu-Foxnlnu, at a rate of 5×10^6 cells per mouse. After attaining a tumour of about 100 mm^3 or 200 mm^3 in depending on the neoplasm and its take this was 8 or even 30 days, and began therapy. On the day therapy was initiated, we randomised the animals and divided them into groups. Test groups were from 6 to 8 animals, and controls had from 8 to 14 animals. Each compound was tested at three differentiated doses.
The preparations were administered intravenously (i.v.) twice weekly for 4 weeks (thrice weekly for rapidly growing neoplasms). In several series, we used intraperitoneally (i.p.) administration in the same scheme. […] The therapeutic efficacy of the tested formulations was evaluated by measuring tumour size (length and width measurements of the tumour on the basis of the calculated tumour volume). Tumours were measured twice weekly for a period of about 30 days for fast-growing neoplasms, as well as about 60 days for the slow-growing neoplasms. The tumour volume in the treated groups compared with the control group. On this basis, inhibition of tumour growth was calculated using the following formula: Tumour growth inhibition TGI [%]=100−(ΔVT/ΔVC×100) Where ΔVT—is mean the tumour volume in animals in the group treated at the given day of treatment, minus the mean tumour volume in animals at the date of commencement of therapy. ΔVC is mean tumour volume in animals in the control group on a given day of treatment minus the average tumour volume of animals on the date of commencement of therapy. The results of the tests of anti-neoplasmic activity conducted in xenografts of human-origin neoplasms in mice are shown in Table 5.
The result above was accepted only in the case that the dose administered in all animals or more than half of the animals that survived to the end of the experiment. In addition, the evaluation was the day that the administration of the preparation was already completed: for the fast-growing neoplasms (eg. HCT116) this was in the days from 15 to 26, while for slow-growing neoplasms (eg. Panc 1) on a day from 34 to 60. […] In addition, the maximum inhibition of neoplasms could be identified in the day, in which there were no factors that could change the value TGI value.
Such factors may include: a significant decrease in body weight, the appearance of observable toxaemia, excessive rate of tumour growth: tumours in excess of 2000 mm^3 and all animals alive on that day.

Consider `Cc1ccc([N+](=O)[O-])c2c(NCCCNCCNCCCNc3ccc([N+](=O)[O-])c4[nH]c5ccccc5c(=O)c34)c3ccccc3nc12` [C-2039, 9-[N-(4-nitro-9(10H)acridono-1-yl)-aminopropylaminoethylamino-propylamino]-4′-methyl-1′-nitroacridine], for which the EC50 (as a rule, the concentration needed to bring the measured effect to its halfway point) with DU-145 was found to be 88 nM; in the test on MiaPaCa-2, 110 nM; in the test with PANC-1 it was 142 nM.
Take `Cc1ccc([N+](=O)[O-])c2c(NCCCN3CCN(CCCNc4ccc5nnn6c7ccc(O)cc7c(=O)c4c56)CC3)c3ccccc3nc12` [C-2057, 1-[3-(8-hydroxy-6H-[1,2,3]triazolo[4,5,1-de]-acridin-6-on-5-yl)aminopropyl]-4-[3′-(4′-methyl-1′-nitroacridin-1-yl)-aminopropyl]piperazine]: in the test with DU-145, the EC50 is 34 nM.
Consider `Cc1ccc([N+](=O)[O-])c2c(NCCNCCNCCNc3ccc(C)c4[nH]c5ccccc5c(=O)c34)c3ccccc3nc12` [C-2024, 9-[N-(4-methyl-9(10H)acridono-1-yl)-aminoethylaminoethylamino-ethylamino]-4′-methyl-1′-nitroacridine], for which the EC50 was determined as 417 nM with DU-145, 370 nM in the test with H-460, 1270 nM in the test with HCT-116 and 1180 nM in the test on HT-29.
As for `Cc1ccc([N+](=O)[O-])c2c(NCCCN3CCN(CCCNc4ccc([N+](=O)[O-])c5[nH]c6ccc(O)cc6c(=O)c45)CC3)c3ccccc3nc12` [C-2020], the concentration giving a half-maximal response (EC50) in the test on DU-145 was found to be 61 nM; in the test with H-460, 47 nM; in the test with HT-29, 233 nM.
Consider `Cc1ccc([N+](=O)[O-])c2c(NCCNCCNc3ccc(C)c4[nH]c5ccccc5c(=O)c34)c3ccccc3nc12` [C-2016, 9-{N-[(4-methyl-9(10H)-acridono-1-yl)aminoethyl]ethylamino}-4′-methyl-1′-nitroacridine], for which the EC50 with DU-145 came out at 599 nM; in the test on HT-29 it was 413 nM.
In turn, `Cc1ccc([N+](=O)[O-])c2c(NCCCN(C)CCCNc3ccc4nnn5c6ccc(O)cc6c(=O)c3c45)c3ccccc3nc12` [C-2056, 9-{N-5-[(8-hydroxy-6H-[1,2,3]triazolo[4,5,1-de]-acridin-6-on-5-yl)aminopropyl]-N-methylaminopropylamino}-4′-methyl-1′-nitroacridine] came in with an EC50 in the test on DU-145 of 38 nM.
`Cc1ccc([N+](=O)[O-])c2c(NCCCN3CCN(CCCNc4ccc5nnn6c7ccccc7c(=O)c4c56)CC3)c3ccccc3nc12` [C-2058] had an EC50 in the test with DU-145 of 42 nM.
In the case of `O=c1c2cc(O)ccc2n2nnc3ccc(NCCCN4CCN(CCCNc5c6ccccc6nc6cccc([N+](=O)[O-])c56)CC4)c1c32` [C-2047, 1-[3-(8-hydroxy-6H-[1,2,3]triazolo[4,5,1-de]-acridin-6-on-5-yl)aminopropyl]-4-[3′-(1′-nitroacridin-1-yl)-aminopropyl]piperazine], the EC50 in the test on DU-145 amounted to 17 nM; in the test with H-460, 36 nM; in the test with HCT-116, 17 nM; in the test with HT-29, 29 nM.
For `Cc1ccc([N+](=O)[O-])c2c(NCCCN(C)CCCNc3ccc(C)c4[nH]c5ccccc5c(=O)c34)c3ccccc3nc12` [C-2023, 9-{N-[(4-methyl-9(10H)-acridono-1-yl)aminopropyl]-N-methylaminopropylamino}-4′-methyl-1′-nitroacridine], the EC50 was 190 nM in the test on DU-145, 71 nM in the test with H-460, 120 nM in the test with HCT-116 and 123 nM in the test on HT-29.
In the case of `CN(CCCNc1c2ccccc2nc2cccc([N+](=O)[O-])c12)CCCNc1ccc2nnn3c4ccc(O)cc4c(=O)c1c23` [C-2052, 9-{N-[(8-hydroxy-6H-[1,2,3]triazolo[4,5,1-de]-acridin-6-on-5-yl)aminopropyl]-N-methylaminopropylamino}-1′-nitroacridine], the concentration for a half-maximal effect (EC50) was determined as 28 nM in the test with DU-145, 74 nM in the test with H-460, 220 nM with MCF-7 and 155 nM in the test on UM-UC-3. Moreover, the “activity against Panc-1 pancreatic cancer” value in the test with PANC 1 (in words, scale of b125: TGI≥80% as high activity) is reported as “high level of activity”. In the test with PANC 1 (series 30, i.v., single 1 mg/kg, total 8 mg/kg, day 52), the “TGI [%] [100 − (ΔVT/ΔVC × 100]” value was found to be 39%.
Consider `O=c1c2ccccc2[nH]c2c([N+](=O)[O-])ccc(NCCCNCCNCCCNc3c4ccccc4nc4cccc([N+](=O)[O-])c34)c12` [C-2040, 9-[N-(4-nitro-9(10H)acridono-1-yl)-aminopropylaminoethylamino-propylamino]-1′-nitroacridine], for which the results for the EC50 in the test on DU-145, in the test with MiaPaCa-2 and with PANC-1 were 55 nM, 46 nM and 60 nM, respectively.
Consider `Cc1ccc([N+](=O)[O-])c2c(NCCCNCCCNc3ccc([N+](=O)[O-])c4[nH]c5ccc(O)cc5c(=O)c34)c3ccccc3nc12` [C-2021, 9-{N-[(7-hydroxy-4-nitro-9(10H)acridono-1-yl)aminopropyl]-aminopropylamino}-4′-methyl-1′-nitroacridine], for which the EC50 with DU-145 was 78 nM; in the test with H-460, 73 nM; in the test with HCT-116 it was 88 nM; in the test with HT-29, 129 nM.
Regarding `Cc1ccc([N+](=O)[O-])c2c(NCCCN(C)CCCNc3ccc([N+](=O)[O-])c4[nH]c5ccc(O)cc5c(=O)c34)c3ccccc3nc12` [C-2019, 9-{N-[(7-hydroxy-4-nitro-9(10H)acridono-1-yl)aminopropyl]-N-methylaminopropylamino}-4′-methyl-1′-nitroacridine], the figures for the EC50 in the test on DU-145, with H-460 and in the test with HT-29 were 73 nM, 46 nM and 200 nM, respectively.
Turning to `Cc1ccc([N+](=O)[O-])c2c(NCCNCCNCCNc3ccc([N+](=O)[O-])c4[nH]c5ccccc5c(=O)c34)c3ccccc3nc12` [C-2032, 9-[N-(4-nitro-9(10H)acridono-1-yl)-aminoethylaminoethylamino-ethylamino]-4′-methyl-1′-nitroacridine], the EC50 with DU-145 was 1690 nM; in the test on HCT-116, 850 nM; in the test with PANC-1, 1310 nM; in the test on UM-UC-3 it was 730 nM.
For `CN(CCCNc1c2ccccc2nc2cccc([N+](=O)[O-])c12)CCCNc1ccc2nnn3c4ccccc4c(=O)c1c23` [C-2060, 9-{N-5-[(6H-[1,2,3]triazolo[4,5,1-de]-acridin-6-on-5-yl)aminopropyl]-N-methylaminopropylamino}-1′-nitroacridine], the figures for the EC50 in the test with DU-145 and in the test on H-460 were 150 nM and 185 nM, respectively.
As to `Cc1ccc(NCCCNCCCNc2c3ccccc3nc3cccc([N+](=O)[O-])c23)c2c(=O)c3ccccc3[nH]c12` [C-2038, 9-{N-[(4-methyl-9(10H)-acridono-1-yl)aminopropyl]propylamino}-1′-nitroacridine], the EC50 came to 184 nM with DU-145, 228 nM with MCF-7, 280 nM in the test with MiaPaCa-2 and 377 nM in the test with PANC-1.
For `O=c1c2ccccc2n2nnc3ccc(NCCCNCCCNc4c5ccccc5nc5cccc([N+](=O)[O-])c45)c1c32` [C-2063, 9-{N-5-[(6H-[1,2,3]triazolo[4,5,1-de]-acridin-6-on-5-yl)aminopropyl]-aminopropylamino}-1′-nitroacridine], the EC50 worked out at 4.6 nM in the test with DU-145 and 24 nM with H-460.
